The values below come from paper PMC4594013 (Frontiers in Pharmacology, 2015).

“Also recorded” adds a separate entry of the source. Where a name gives a salt, the structure may show the parent alone.

For data set [1], the target named is T1, OAT2-tv1 (Homo sapiens, UniProt Q9Y694).
T1 sequence (Q9Y694 1-546 isoform Q9Y694-2): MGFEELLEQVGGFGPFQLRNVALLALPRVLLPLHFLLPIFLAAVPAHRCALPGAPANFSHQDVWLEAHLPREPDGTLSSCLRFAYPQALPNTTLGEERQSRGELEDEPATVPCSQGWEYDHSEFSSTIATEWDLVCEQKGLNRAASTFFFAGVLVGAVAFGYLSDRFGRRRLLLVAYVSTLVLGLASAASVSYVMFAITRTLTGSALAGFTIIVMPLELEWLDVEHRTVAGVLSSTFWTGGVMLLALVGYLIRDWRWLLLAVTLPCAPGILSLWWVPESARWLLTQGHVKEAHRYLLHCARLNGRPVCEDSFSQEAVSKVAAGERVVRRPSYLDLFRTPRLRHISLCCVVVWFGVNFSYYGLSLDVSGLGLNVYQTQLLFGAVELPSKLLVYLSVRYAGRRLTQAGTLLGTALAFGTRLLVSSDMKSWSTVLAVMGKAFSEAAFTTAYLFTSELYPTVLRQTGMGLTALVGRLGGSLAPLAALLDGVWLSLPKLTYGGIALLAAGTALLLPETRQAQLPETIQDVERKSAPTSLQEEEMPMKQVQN
Description: Cellular uptake of radiolabeled compounds by CHO, HEK or MDCK cells stably expressing OAT2-tv1. The method, then: (§1) All experiments examining cellular radiolabeled compound uptake were conducted using cells grown to confluence in 24-well flat bottom plates. The transport solution consisted of WB (room temperature) containing radiolabeled compound and the uptake period for all experiments was at an initial rate time point of 5 min. [^3H]Penciclovir served as the probe OAT2 substrate. We also examined the uptake of [^3H]para-aminohippurate, [^3H]estrone-3-sulfate, [^14C]glutarate, [^14C]succinate, [^3H]paclitaxel, and [^3H]dehydroepiandrosterone sulfate by OAT2 since published studies indicate that they are substrates of the transport protein ([Sun et al., 2001]; [Kobayashi et al., 2005a]). […] For all cellular uptake experiments, the medium was aspirated and the cells were rinsed once with WB (0.3 ml). Following the uptake period, cells were washed three times with ice-cold WB (0.5 ml each wash). After aspirating the final wash the cells were lysed in 0.5 N NaOH/1% SDS (0.4 ml) for ∼30 min on an orbital shaker. 1 N HCl (0.2 ml) was then added to neutralize the NaOH, and the cell lysates (0.5 ml) were transferred to scintillation vials containing liquid scintillation cocktail (CytoScint ES, MP Biomedicals). Cellular radioactivity content was determined with a Beckman LS6500 liquid scintillation counter. Protein content was determined using the bicinchoninic acid method. See the Figure and Table Legends for additional details describing the experimental conditions used.
FIGURE 2 Cellular accumulation of [^3H]penciclovir (A), [^3H]para-aminohippurate (B), [^3H]estrone-3-sulfate (C), or [^14C]glutarate (D) by parental CHO, HEK, or MDCK cells, or CHO, HEK, or MDCK cells stably expressing either OAT2-tv1 or OAT2-tv2. The concentration of [^3H]penciclovir in the transport solution was 0.1 μM for CHO and MDCK cell experiments, and 0.5 μM for HEK cell experiments. The concentrations of [^3H]para-aminohippurate, [^3H]estrone-3-sulfate and [^14C]glutarate were 8 nM, 10 nM, and 18 μM, respectively. Uptake was conducted for 5 min at room temperature.
FIGURE 4 Cellular accumulation of [^14C]succinate (18.5 μM) by CHO parental cells, CHO-OAT2-tv1 cells or CHO cells stably expressing the Na-dicarboxylate cotransporter 3 (NaDC3). Uptake was conducted for 5 min. Values are the mean ± standard error of the mean of four experiments for CHO parental and CHO-OAT2-tv1 cells. A single uptake experiment was performed with CHO-NaDC3 cells.

The subject of the next data set is CHO parental cells. As to the kind of experiment: Cellular accumulation of radiolabeled compounds in CHO parental cells. The conditions noted are these: [3H]dehydroepiandrosterone sulfate 12 nM, [3H]paclitaxel 22 nM, n = 3. It is filed as cell-based, Chinese hamster.
Data set [2] has as its system OAT2 (sequence not given). To be noted: variant unclear; ref Sun et al., 2001; cited from earlier work.
The subject of the next data set is OAT2-tv3. More on the design: method as in Sato et al., 2010. The conditions noted are these: OAT2-tv3 in HEK cells pre-loaded with succinate (100 mM); ref Sato et al., 2010; cited from earlier work.
For data set [3], the target named is T1, OAT2-tv1. As to the kind of experiment: Inhibition of [3H]penciclovir uptake into CHO-OAT2-tv1 cells. It is filed as cell-based. To be noted: CHO-OAT2-tv1 cells; test compound 1 mM; [3H]penciclovir ∼30 nM; 5 min. On the procedure: as §1
The concentration of each Kreb’s cycle intermediate was 1 mM. Uptake was conducted for 5 min.

The next data set addresses T2, OAT2-tv2 (Homo sapiens, UniProt Q9Y694).
T2 sequence (Q9Y694 1-548): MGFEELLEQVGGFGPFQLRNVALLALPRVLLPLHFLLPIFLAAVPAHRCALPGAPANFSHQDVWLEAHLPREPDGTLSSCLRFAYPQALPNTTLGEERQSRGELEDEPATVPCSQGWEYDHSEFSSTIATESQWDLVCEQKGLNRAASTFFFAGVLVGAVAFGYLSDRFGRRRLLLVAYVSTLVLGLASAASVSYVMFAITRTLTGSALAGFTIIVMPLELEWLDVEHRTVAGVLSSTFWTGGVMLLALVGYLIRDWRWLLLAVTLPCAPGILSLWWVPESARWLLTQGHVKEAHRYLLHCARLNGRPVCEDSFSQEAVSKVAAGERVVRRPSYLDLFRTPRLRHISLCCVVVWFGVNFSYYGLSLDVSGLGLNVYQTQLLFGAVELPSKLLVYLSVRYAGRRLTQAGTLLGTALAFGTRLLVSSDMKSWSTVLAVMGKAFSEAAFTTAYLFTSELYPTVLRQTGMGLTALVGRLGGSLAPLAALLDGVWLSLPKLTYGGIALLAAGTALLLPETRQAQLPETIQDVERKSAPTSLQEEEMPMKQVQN
On the set-up: method as in Kobayashi et al., 2005a. To be noted: OAT2-tv2 in Xenopus oocytes pre-loaded with 5 mM compound; ref Kobayashi et al., 2005a; cited from earlier work.

Data set [4] deals with Na-dicarboxylate cotransporter 3 (NaDC3) (Homo sapiens, UniProt Q8WWT9). The conditions noted are these: CHO-NaDC3 cells; [14C]succinate 18.5 μM; 5 min; single experiment (n = 1). The method, then:
as §1, with “See the Figure and Table Legends for additional details describing the experimental conditions used.” left out

Chain of Na-dicarboxylate cotransporter 3 (NaDC3) (Q8WWT9 whole entry, species assumed): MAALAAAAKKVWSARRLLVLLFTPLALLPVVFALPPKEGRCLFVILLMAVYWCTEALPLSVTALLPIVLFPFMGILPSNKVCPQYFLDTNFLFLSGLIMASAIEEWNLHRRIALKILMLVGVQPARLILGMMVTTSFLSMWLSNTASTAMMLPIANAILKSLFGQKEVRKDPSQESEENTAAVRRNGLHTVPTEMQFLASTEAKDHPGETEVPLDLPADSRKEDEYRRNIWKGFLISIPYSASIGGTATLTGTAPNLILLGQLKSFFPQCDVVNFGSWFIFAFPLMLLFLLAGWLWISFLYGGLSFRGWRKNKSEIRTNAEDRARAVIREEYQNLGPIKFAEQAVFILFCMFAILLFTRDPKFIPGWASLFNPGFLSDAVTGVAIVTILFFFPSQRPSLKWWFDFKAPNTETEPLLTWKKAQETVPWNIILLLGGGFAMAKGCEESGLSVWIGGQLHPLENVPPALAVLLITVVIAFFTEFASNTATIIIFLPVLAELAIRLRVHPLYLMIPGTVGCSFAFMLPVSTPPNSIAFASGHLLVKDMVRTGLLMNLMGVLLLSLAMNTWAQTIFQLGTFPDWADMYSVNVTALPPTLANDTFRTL

Turning to `C[C@]12CC[C@H](OS(=O)(=O)O)CC1=CC[C@@H]1[C@@H]2CC[C@]2(C)C(=O)CC[C@@H]12` [dehydroepiandrosterone sulfate], the cellular accumulation at OAT2-tv1 [1] (CHO-OAT2-tv1 cells, [3H]dehydroepiandrosterone sulfate 12 nM, [3H]paclitaxel 22 nM, n = 3) is recorded as 11.0 ± 0.54 fmoles ⋅ mg protein^-1 ⋅ min^-1; with CHO parental cells, 10.3 ± 1.1 fmoles ⋅ mg protein^-1 ⋅ min^-1. In addition, the “mediated transport by OAT2-tv1” value at OAT2-tv1 [1] (expressed in CHO cells) is on record as “unable to show mediated transport”. The “transport by OAT2” value in data set [2] is given as “did not observe transport”.
With `O=C(O)CCC(=O)O` [succinate], the “uptake of [14C]succinate compared to parental CHO cells” value on OAT2-tv1 [1] (CHO-OAT2-tv1 cells, [14C]succinate 18.5 μM, 5 min) is on record as “not different than uptake into the parental CHO cells; also recorded: no significant difference; also recorded: not transported”. Besides, the “stimulation of urate uptake by pre-loading” value in the data set with OAT2-tv3 is on record as “failed to observe stimulation”. Moreover, on OAT2-tv1 [3], the “cis-inhibition of penciclovir uptake” value is “none of the Kreb’s cycle intermediates tested, including succinate and fumarate, cis-inhibited penciclovir uptake”. Also, the “stimulation of estrone-3-sulfate uptake by pre-loading” value at OAT2-tv2 is 2.1 fold. Besides, the “uptake of [14C]succinate, fold higher than control” value in data set [4] was roughly 30 fold.
